Source: ChEMBL document CHEMBL1777719, “Norcantharidin analogues with nematocidal activity in Haemonchus contortus” (Bioorg Med Chem Lett, 2011)
Active and inactive are the calls of the source. The calls are words filed in the database; no cut-off is given here.

How the values were obtained:
Haemonchus contortus [1] = assay: Nematocidal activity against Haemonchus contortus Haecon 5 strain isolated from helminth-free Merino weaner sheep after 6 days by larval development assay; format: functional; settings: for LC50: Haemonchus contortus, Haecon 5 strain, 144 h, read-out: LD50 (the source's name)
[2] = Cytotoxicity against human HT-29 cells after 72 hrs by MTT assay; format: cell-based
[3] = Cytotoxicity against human SW480 cells after 72 hrs by MTT assay; format: cell-based
[4] = Cytotoxicity against human MCF7 cells after 72 hrs by MTT assay; format: cell-based
[5] = Cytotoxicity against human A2780 cells after 72 hrs by MTT assay; format: cell-based
[6] = Cytotoxicity against human H460 cells after 72 hrs by MTT assay; format: cell-based; settings: NCI-H460 cells
[7] = Cytotoxicity against human A431 cells after 72 hrs by MTT assay; format: cell-based, A-431
[8] = Cytotoxicity against human DU145 cells after 72 hrs by MTT assay; format: cell-based, DU-145
[9] = Cytotoxicity against human BE(2)-C cells after 72 hrs by MTT assay; format: cell-based
[10] = Cytotoxicity against human SJ-G2 cells after 72 hrs by MTT assay; format: cell-based
Haemonchus contortus [11] = assay: Nematocidal activity against Haemonchus contortus Haecon 5 strain isolated from helminth-free Merino weaner sheep at 12.5 to 100 uM after 6 days by larval development assay; format: functional, organism-based

`N#C/C(=C\c1ccc[nH]1)c1ccccc1` showed an LD99 (Haemonchus contortus [1]) of 100 µM and an LC50 (Haemonchus contortus [1]) of 6 µM.

`CCCCCCCCN1C(=O)[C@@H]2[C@H](C1=O)[C@H]1CC[C@@H]2O1` gave an LD99 (Haemonchus contortus [1]) of 80 µM and an LC50 (Haemonchus contortus [1]) of 40 µM.

With `N#C/C(=C\c1ccc[nH]1)c1ccc(F)cc1` the LD99 (Haemonchus contortus [1]) was 50 µM and the LC50 (Haemonchus contortus [1]) was 10 µM.

Work on `N#C/C(=C\c1ccc[nH]1)c1ccc(Cl)c(Cl)c1` yielded an LD99 (Haemonchus contortus [1]) of 12.5 µM and an LC50 (Haemonchus contortus [1]) of 7 µM.

With `N#C/C(=C\c1ccc[nH]1)c1ccc(Cl)cc1` the LD99 (Haemonchus contortus [1]) was 25 µM and the LC50 (Haemonchus contortus [1]) was 10 µM.

`CCCCCCCCCCN1C(=O)[C@@H]2[C@H](C1=O)[C@H]1CC[C@@H]2O1` showed an LD99 (Haemonchus contortus [1]) of 90 µM and an LC50 (Haemonchus contortus [1]) of 30 µM.

Work on `O=C(O)C1C(C(=O)Nc2ccc(CO)cc2)[C@H]2CC[C@@H]1O2` (some centres not stated) yielded a GI50 at 72 h [2] of 10 µM, a GI50 at 72 h [3] of 10 µM and a GI50 at 72 h [4] of 10 µM. The GI50 at 72 h [5] was 10 µM, the GI50 at 72 h [6] was 10 µM and the GI50 at 72 h [7] was 10 µM. It also gave a GI50 at 72 h [8] of 10 µM, a GI50 at 72 h [9] of 10 µM and a GI50 at 72 h [10] of 10 µM. For the same molecule, the inhibition (Haemonchus contortus [11]) was “inactive”.
